# Counter-ions that a name gives are not always drawn. Like-named read-outs stand apart in the source and are kept apart here.
# How the values were obtained:
# [1] = reported by Wani et al., J. Med. Chem., 30, 1774 (1987); cited from earlier work
# L1210 leukemia cells = assay: cells; type: cell-based, mouse
# Description: Cells were exposed continuously upon cloning into medium containing 0.2 percent Noble agar. After incubation at 37° C. in a CO2 incubator for 3 days, colonies were stained with viable cell specific formazan stain and, 24 hours later, were enumerated by a colony counter (Biotran II, New Brunswick Scientific Co., Edison, N.J.) adjusted to identify colonies of more than 50 cells. The concentration which reduced cloning efficiency by 50 percent IC50) was determined by interpolation.
# ip M5076 sarcoma = assay: ip-implanted M5076 sarcoma in mice; type: in vivo, mouse; details: ip M5076 Sarcoma; optimal doses and optimal schedules
# Description: (§2) Tumors used in these studies--P388 leukemia and its doxorbicin--and mitoxanrone-resistant sublines, L1210 leukemia, B16 melanoma, B16 melanoma/F10 subline, M5076 sarcoma and colon carcinoma 26--are maintained by serial transplantation in syngeneic strains of mice. For the leukemias, these tumors are maintained in DBA/2 mice. The M5076 sarcoma, the B16 melanoma and its F10 subline are maintained in C57B1/6 mice and the colon sarcinoma 26 is maintained in BALB/c mice. The leukemias and the M5076 sarcoma are serially transplanted i.p. as ascites cell suspensions while the B16 melanoma lines and the colon carcinoma 26 are serially transplanted as s.c. solid tumors.
# (§3) For therapeutic trials, tumors are aseptically removed from donor mice and prepared as suspensions for implantation ip into test animals. The test animals for the colon carcinoma 26 are female BALB/c mice (20-25 gm). The test animals for the other tumor models are syngeneic female F1 hybrid B6D2F1 mice (C57B1/6 x DBA/2). The inoculum level varies with the type of tumor: P388 leukemia is inoculated at 10^6 cells per mouse, L1210 leukemia at 10^5 or 10^6 cells per mouse, M5076 sarcoma at 5×10^6 cells per mouse. For implantation of the B16 melanoma lines and the colon carcinoma 26, s.c. tumors from donor mice are minced and homogenized in loose fitting teflon glass homogenizer to give a tumor brei. The inoculum levels are 0.5 ml of a 10 percent (w:v) brei of the B16 melanoma lines and 0.5 ml of a 5 percent (w:v) brei of colon carcinoma 26. After tumor inoculation, mice randomized to treatment groups comprised of 6-8 mice each. In each experiment, there are three groups of untreated control mice. Drugs are dissolved or suspended in appropriate aqueous vehicles and given by a variety of routes and schedules of administration over a range of dose levels. Animals are housed in shoebox cages and are monitored daily for mortality for 30 (L1210), 45 (P388) or 60 (B16, M5076, colon 26) days.
# ip colon carcinoma 26 = assay: ip-implanted colon carcinoma 26 in mice; type: in vivo, mouse; details: ip Colon Carcinoma 26; optimal doses and optimal schedules
# Description: as §2, §3
# sc Lewis lung carcinoma = type: in vivo, mouse; details: sc Lewis Lung Carcinoma; optimal doses and optimal schedules
# Excerpt: (§1) The inoculum varies with the tumor.
# [2] = tested on: sc B16 melanoma/F10 subline; assay: sc-implanted B16 melanoma/F10 subline in mice; type: in vivo, mouse; details: sc B16 Melanoma/F10 Subline; optimal doses and optimal schedules
# Excerpt: as §1
# sc ADJ-PC6 plasmacytoma = assay: sc-implanted ADJ-PC6 plasmacytoma in mice; type: in vivo, mouse; details: sc ADJ-PC6 Plasmacytoma; optimal doses and optimal schedules
# Description: (§4) Inhibition of tumor growth (TGI) is based on mean tumor volume of groups of 7 or 8 mice relative to untreated controls. Tumors were measured between Days 12 and 19 (except Day 24 for Colon 51 and Day 31 for Colon 38).
# (§5) Tumors used in these studies are maintained by serial transplantation in syngeneic strains of mice C57BL/6 for Lewis lung carcinoma, B16 melanoma and its F10 subline, M5076 sarcoma and colon adenocarcinoma 38; BALB/c for colon carcinoma 26, ADJ-PC6 plasmacytoma Madison lung carcinoma and colon adenocarcinoma 51, C3H for mammary adenocarcinoma 16/c. With the exception of the M5076 sarcoma, which is maintained as a i.p ascites cell suspension, all of the tumors were serially transplanted as s.c. solid tumors.
# (§6) For therapeutic trials, tumors were aseptically removed from donor mice and prepared for implantation s.c. into test animals. The test animals for Lewis lung carcinoma, B16 melanoma and its F10 subline, M5076 sarcoma and colon adenocarcinoma 38 are syngeneic female F1 hybrid B6D2F mice (C57B1/6×DBA/2). ADJ-PC6 plasmacytoma and colon carcinoma 26 are evaluated in female BALB/c mice. Madison lung carcinoma and colon adenocarcinoma 51 are evaluated in syngeneic female F1 hybrid CD2F1 mice (BALB/c×DBA/2). Mammary adenocarcinoma 16/c is evaluated in female C3H mice. The inoculum varies with the tumor. Colon adenocarcinomas 38 is implanted as 2 mm fragments by trochar. M5076 sarcoma and ADJ-PC6 plasmacytoma are implanted as cell suspensions at 5×10^6 and 2×10^6 cells per mouse, respectively. Colon carcinoma 26, colon adenocarcinoma 51, Lewis lung carcinoma, Madison lung carcinoma and B16 melanoma and its F10 subline are implanted as tumor breis prepared as described above in a volume of 0.5 ml. The brei concentration was 10 percent (w:v) except for colon carcinoma 26 for which the brei concentration was 5 percent (w:v). After tumor inoculation, mice are randomized to treatment groups of 7 or 8 mice. In each experiment, there are three groups of untreated control mice.
# (§7) Drugs are dissolved or suspended in appropriate aqueous vehicles and given by a variety of routes of administration and treatment schedules over a range of dosage levels. Animals are housed in shoebox cages and are monitored daily for mortality. […] Time for tumor measurement is dependent on the different rates of tumor growth of the different tumors: the most rapidly growing tumors such as the Lewis and Madison lung tumors, B16 melanoma and its F10 subline were measured between Days 12 and 16. The slower growing tumors were measured at later time points--17 days for M5076 sarcoma, 16 or 19 days for mammary adenocarcinoma 16/c, 19 days for ADJ-PC6 plasmacytoma and colon carcinoma 26, 24 days for colon adenocarcinoma 51, and 31 days for colon adenocarcinoma 38.
# sc M5076 sarcoma = assay: sc-implanted M5076 sarcoma in mice; type: in vivo, mouse; details: sc M5076 Sarcoma; optimal doses and optimal schedules
# Excerpt: as §1
# [3] = tested on: sc mammary adenocarcinoma 16/c; assay: in vivo; set-up: species or system mouse; details: sc Mammary Adenocarcinoma 16/c; optimal doses and optimal schedules
# Excerpt: as §1
# [4] = tested on: sc Madison lung carcinoma; assay: sc-implanted Madison lung carcinoma in mice; type: in vivo, mouse; details: sc Madison Lung Carcinoma; optimal doses and optimal schedules
# Excerpt: as §1
# sc colon carcinoma 26 = assay: sc-implanted colon carcinoma 26 in mice; type: in vivo, mouse; details: sc Colon Carcinoma 26; optimal doses and optimal schedules
# Excerpt: as §1
# Aqueous solubility = type: physicochemical
# ip P388 leukemia = details: ip P388 Leukemia; optimal doses and optimal schedules
# Description: Increase in lifespan (ILS) is based on median survival time of groups of 6 mice. Net tumor cell kill (NCK) is calculated from median survival time by standard methods, since survival time is a linear function of the log tumor cell burden.
# Animals were implanted ip with 10^6 cells. Increase in lifespan (ILS) is based on median survival time of groups of 6 mice relative to untreated controls. Long-term survivors were tumor-free on Day 45.
# as §2, §3
# ip B16 melanoma = details: ip B16 Melanoma; optimal doses and optimal schedules
# Description: as §2, §3
# [5] = tested on: ip B16 melanoma/F10 subline; details: ip B16 Melanoma/F10 Subline; optimal doses and optimal schedules
# Description: as §2, §3
# iv P388 leukemia = details: iv P388 Leukemia; optimal doses and optimal schedules
# Description: (§8) Tumors used in these studies P388 leukemia, L1210 leukemia and Lewis lung carcinoma--are maintained by serial transplantation in syngeneic strains of mice, DBA/2 for the leukemias and C57B1/6 for Lewis lung carcinoma. The leukemias are serially transplanted i.p. as ascites cell suspensions while the Lewis lung carcinoma is serially transplanted as a s.c. solid tumor.
# (§9) For therapeutic trials, tumors were aseptically removed from donor mice and prepared as suspensions for implantation into test animals which for each tumor are syngeneic female F1 hybrid B6D2F1 mice (C57B1/6×DBA/2). The inoculum level varies with the type of tumor: P388 leukemia is inoculated at 10^6 cells per mouse, L1210 leukemia at 10^5 or 10^6 cells per mouse, and Lewis lung carcinoma at 0.25 ml of a 10 percent (w:v) brei. […] After tumor inoculation, mice are randomized to treatment groups of 6 to 8 mice each. In each experiment, there are three groups of untreated control mice.
# (§10) Drugs are dissolved or suspended in appropriate aqueous vehicles and given i.p. or i.v. on various treatment schedules over a range of dosage levels. Animals are housed in shoebox cages and monitored daily for mortality for 30 (L1210), 45 (P388) or 60 (Lewis lung) days.
# iv L1210 leukemia = details: for Increase in Lifespan (ILS) or Inhibition of Tumor Growth (TGI): iv L1210 Leukemia, optimal doses and optimal schedules; for ILS: iv L1210 (10^6 cells), Days 1 & 5, route ip in table head (iv)
# Description: (§11) Animals were inoculated iv with 10^6 cells. Increase in lifespan (ILS) is based on median survival time of groups of 6 mice relative to untreated controls.
# (§12) The protocols utilized for the evaluation of the antitumor activity of Formula (I) compounds are well established and widely utilized by those skilled in the art of assessing the activity of drugs in preclinical tumor models. These studies generally follow the protocols established by the National Cancer Institute as described by Geran et al., Cancer Chemotherapy Reports, Part 3, Vol. 3, 1-103, 1972.
# as §8, §9, §10
# [6] = ip-implanted L1210 leukemia in mice; details: mouse, in vivo, ip;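 note: each mouse received 10^6 L1210 cells intraperitoneally, with drug treatment also given by the i.p. route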
# Description: (§13) For in vivo studies L1210 cells were implanted i.p. (10^6 per mouse)
# (§14) and drugs were administered i.p. on Days 1 and 5. Increase in lifespan
# (§15) (ILS) was based on median survival time of groups of 6 mice treated at th
# maximally tolerated dose of the drugs.
# ip L1210 leukemia = assay: ip-implanted L1210 leukemia in mice;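 for all read-outs here: each mouse received 10^6 L1210 cells intraperitoneally, with drug treatment also given by the i.p. route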; details: for In Vivo Antitumor Activity ILS (increase in lifespan): ip L1210 (10^6 cells), drug i.p. Days 1 and 5 at maximally tolerated dose; for Increase in Lifespan (ILS) or Inhibition of Tumor Growth (TGI): ip L1210 Leukemia, optimal doses and optimal schedules
# Description: as §13, §14, §15
# maximally tolerated dose of the drugs.
# [7] = tested on: sc colon adenocarcinoma 51; type: in vivo, mouse; details: sc Colon Adenocarcinoma 51; optimal doses and optimal schedules
# Excerpt: as §1
# sc B16 melanoma = details: sc B16 Melanoma; optimal doses and optimal schedules
# Description: Inhibition of tumor growth (TGI) is based on mean tumor volume of groups of 7 or 8 mice relative to untreated controls.
# as §5, §6, §7
# For highly metastatic tumors including: Lewis and Madison lung tumors, colon carcinoma 26 and B16 melanoma and its F10 subline, tumor-bearing mice are monitored for survival time as well. For the less mestastatic tumor models, tumor-bearing mice are killed following tumor measurement. In this setting, an increase in lifespan of ≥30 percent is considered to be evidence of drug activity.
# [8] = tested on: sc colon adenocarcinoma 38; details: sc Colon Adenocarcinoma 38; optimal doses and optimal schedules
# Description: as §4, §5, §6, §7
# in vivo [9] = details: mouse, ip
# Description: as §13, §14, §15
# maximally tolerated dose of the drugs.
# in vivo [10] = details: mouse, iv
# Description: as §11, §12, §8, §9, §10
# [11] = Mus musculus, L1210, read-out: In Vitro Activity IC50
smiles,measurement,setting,value
CCC1(O)C(=O)OCc2c1cc1n(c2=O)Cc2cc3ccc(N)cc3nc2-1 (stereo not shown) [11-amino],activity in an assay for antitumor activity,[1],active
CCC1(O)C(=O)OCc2c1cc1n(c2=O)Cc2cc3ccc([N+](=O)[O-])cc3nc2-1 (stereo not shown) [11-nitro],activity in an assay for antitumor activity,[1],active
"CC[C@@]1(O)C(=O)OCc2c1cc1n(c2=O)Cc2cc3cc(O)ccc3nc2-1 [10-Hydroxycamptothecin, (20 S) 10-Hydroxycamptothecin, reference compound]",IC50,"L1210 leukemia cells; L1210 suspension culture, continuous exposure, cloning into soft agar, read-out: In Vitro Activity IC50",18 nM
same,Increase in Lifespan (ILS) or Inhibition of Tumor Growth (TGI),ip M5076 sarcoma,98 % ILS
same,Increase in Lifespan (ILS) or Inhibition of Tumor Growth (TGI),ip colon carcinoma 26,Curative
same,Increase in Lifespan (ILS) or Inhibition of Tumor Growth (TGI),sc Lewis lung carcinoma,4 % TGI
same,Increase in Lifespan (ILS) or Inhibition of Tumor Growth (TGI),[2],58 % TGI
same,Increase in Lifespan (ILS) or Inhibition of Tumor Growth (TGI),sc ADJ-PC6 plasmacytoma,76 % TGI
same,Increase in Lifespan (ILS) or Inhibition of Tumor Growth (TGI),sc M5076 sarcoma,66 % TGI
same,Increase in Lifespan (ILS) or Inhibition of Tumor Growth (TGI),[3],61 % TGI
same,Increase in Lifespan (ILS) or Inhibition of Tumor Growth (TGI),[4],33 % TGI
same,Increase in Lifespan (ILS) or Inhibition of Tumor Growth (TGI),sc colon carcinoma 26,37 % TGI
same,solubility in water / aqueous vehicles,Aqueous solubility,insolubility in aqueous vehicles
same,Increase in Lifespan (ILS) or Inhibition of Tumor Growth (TGI),ip P388 leukemia,Curative
same,Increase in Lifespan (ILS) or Inhibition of Tumor Growth (TGI),ip B16 melanoma,95 % ILS
same,Increase in Lifespan (ILS) or Inhibition of Tumor Growth (TGI),[5],100 % ILS
same,Increase in Lifespan (ILS) or Inhibition of Tumor Growth (TGI),iv P388 leukemia,40 % ILS
same,Increase in Lifespan (ILS) or Inhibition of Tumor Growth (TGI),iv L1210 leukemia,100 % ILS
same,MTD,[6],9 mg/kg
same,In Vivo Antitumor Activity ILS (increase in lifespan),ip L1210 leukemia,94%
same,Increase in Lifespan (ILS) or Inhibition of Tumor Growth (TGI),ip L1210 leukemia,94 % ILS
CCC1(O)C(=O)OCc2c1cc1n(c2=O)Cc2cc3ccc(C#N)cc3nc2-1 (stereo not shown) [11-cyano],activity in an assay for antitumor activity,[1],active
"CC[C@@]1(O)C(=O)OCc2c1cc1n(c2=O)Cc2cc3c(CNCCO)c(O)ccc3nc2-1 [4S, (20 S) 9-(2'-Hydroxyethylamino) methyl-10-hydroxycamptothecin Acetate Salt]",IC50,L1210 leukemia cells; [11],250 nM
same,MTD,[6],42 mg/kg
same,In Vivo Antitumor Activity ILS (increase in lifespan),ip L1210 leukemia,75%
CC[C@@]1(O)C(=O)OCc2c1cc1n(c2=O)Cc2cc3ccccc3nc2-1 [Camptothecin],Increase in Lifespan (ILS) or Inhibition of Tumor Growth (TGI),ip M5076 sarcoma,81 % ILS
same,Increase in Lifespan (ILS) or Inhibition of Tumor Growth (TGI),ip colon carcinoma 26,50 % ILS
same,Increase in Lifespan (ILS) or Inhibition of Tumor Growth (TGI),sc Lewis lung carcinoma,92 % TGI
same,Increase in Lifespan (ILS) or Inhibition of Tumor Growth (TGI),[7],75 % TGI
same,Increase in Lifespan (ILS) or Inhibition of Tumor Growth (TGI),[2],90 % TGI
same,Increase in Lifespan (ILS) or Inhibition of Tumor Growth (TGI),sc ADJ-PC6 plasmacytoma,100 % TGI
same,Increase in Lifespan (ILS) or Inhibition of Tumor Growth (TGI),sc M5076 sarcoma,100 % TGI
same,Increase in Lifespan (ILS) or Inhibition of Tumor Growth (TGI),[3],99 % TGI
same,Increase in Lifespan (ILS) or Inhibition of Tumor Growth (TGI),[4],63 % TGI
same,Increase in Lifespan (ILS) or Inhibition of Tumor Growth (TGI),sc colon carcinoma 26,66 % TGI
same,solubility in water / aqueous vehicles,Aqueous solubility,insolubility in aqueous vehicles
same,Increase in Lifespan (ILS) or Inhibition of Tumor Growth (TGI),ip P388 leukemia,Curative
same,Increase in Lifespan (ILS) or Inhibition of Tumor Growth (TGI),ip B16 melanoma,36 % ILS
same,Increase in Lifespan (ILS) or Inhibition of Tumor Growth (TGI),[5],68 % ILS
same,Increase in Lifespan (ILS) or Inhibition of Tumor Growth (TGI),iv P388 leukemia,75 % ILS
same,Increase in Lifespan (ILS) or Inhibition of Tumor Growth (TGI),iv L1210 leukemia,136 % ILS
same,Increase in Lifespan (ILS) or Inhibition of Tumor Growth (TGI),sc B16 melanoma,78 % TGI
same,Increase in Lifespan (ILS) or Inhibition of Tumor Growth (TGI),[8],100 % TGI
same,Increase in Lifespan (ILS) or Inhibition of Tumor Growth (TGI),ip L1210 leukemia,172 % ILS
"CC[C@@]1(O)C(=O)OCc2c1cc1n(c2=O)Cc2cc3c(CNCCN(C)C)c(O)ccc3nc2-1 [12S, (20 S) 9-N,N-Dimethylaminoethylaminomethyl-10-hydroxycamptothecin Dihydrochloride Salt]",IC50,L1210 leukemia cells; [11],49 nM
same,MTD,[6],> 42 mg/kg
same,In Vivo Antitumor Activity ILS (increase in lifespan),ip L1210 leukemia,94%
CC[C@@]1(O)C(=O)OCc2c1cc1n(c2=O)Cc2cc3c(CN4CCC(N5CCCCC5)CC4)c(O)ccc3nc2-1 [7S],IC50,L1210 leukemia cells; [11],270 nM
same,MTD,[6],> 42 mg/kg
same,In Vivo Antitumor Activity ILS (increase in lifespan),ip L1210 leukemia,44%
CC[C@@]1(O)C(=O)OCc2c1cc1n(c2=O)Cc2cc3c(CNC4CC4)c(O)ccc3nc2-1 [8S],IC50,L1210 leukemia cells; [11],130 nM
same,MTD,[6],25 mg/kg
same,In Vivo Antitumor Activity ILS (increase in lifespan),ip L1210 leukemia,131%
"CC[C@@]1(O)C(=O)OCc2c1cc1n(c2=O)Cc2cc3c(CCN)c(O)ccc3nc2-1 [22S, (20S) 10-Hydroxy-9-aminoethylcamptothecin Acetate Salt]",IC50,L1210 leukemia cells; [11],360 nM
same,MTD,[6],100 mg/kg
same,In Vivo Antitumor Activity ILS (increase in lifespan),ip L1210 leukemia,75%
CC[C@@]1(O)C(=O)OCc2c1cc1n(c2=O)Cc2cc3c(CN4CCOCC4)c(O)ccc3nc2-1 [5S],IC50,L1210 leukemia cells; [11],370 nM
same,MTD,[6],100 mg/kg
same,In Vivo Antitumor Activity ILS (increase in lifespan),ip L1210 leukemia,83%
CCC1(O)C(=O)OCc2c1cc1n(c2=O)Cc2cc3ccc(CN)cc3nc2-1 (stereo not shown) [11-aminomethyl analog],activity in an assay for antitumor activity,[1],inactive
"CC[C@@](O)(C(=O)O)c1cc2n(c(=O)c1CO)Cc1cc3c(CN(C)C)c(O)ccc3nc1-2 [21S, Sodium Salt]",fold less potent than the three acid salts,"iv L1210 leukemia; by maximally tolerated dose, iv L1210",about 3.5 fold
same,ILS,iv L1210 leukemia; 6.5 mg/kg,33%
same,ILS,iv L1210 leukemia; 12 mg/kg,67%
same,ILS,iv L1210 leukemia; 19 mg/kg,100%
same,ILS,iv L1210 leukemia; 32 mg/kg,133%
same,ILS,iv L1210 leukemia; 54 mg/kg,208%
same,ILS,iv L1210 leukemia; 90 mg/kg,toxic
same,MTD,in vivo [9],54 mg/kg
same,MTD,in vivo [10],54 mg/kg
same,In Vivo Antitumor Activity ILS (increase in lifespan),ip L1210 leukemia,> 200%
"CC[C@@]1(O)C(=O)OCc2c1cc1n(c2=O)Cc2cc3cc(C#N)ccc3nc2-1 [16S, 10-Cyanocamptothecin]",IC50,L1210 leukemia cells; [11],80 nM
same,MTD,[6],3 mg/kg
same,In Vivo Antitumor Activity ILS (increase in lifespan),ip L1210 leukemia,100%
